Test results: ChEMBL document CHEMBL1201862, “PubChem BioAssay data set” (2004)
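Growth conditions: 96-well plates. Treatment: test compound, 48 hours, 5 concentrations. Analysis: linear interpolation between bracketing concentrations; unreached endpoints set to highest concentration. The concentration for 50% growth inhibition is given as GI50.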 Calls of active or inactive are those of the source. Cut-off read from the data, not from the text of the source: active = GI50 up to about 1.1 µM and inactive = higher.

Experiments:
Test in all cases: NCI anticancer screen, dose series, 48 h
[1] = system: EKVX
[2] = system: SNB-19
[3] = system: SW-620
[4] = system: SF-268
[5] = system: OVCAR-8
[6] = system: COLO 205
[7] = system: NCI-H522
[8] = system: 786-0
[9] = system: SK-MEL-2
[10] = system: SK-OV-3
[11] = system: SK-MEL-5
[12] = system: HCT-116
[13] = system: NCI-H23
[14] = system: HCT-15
[15] = system: RPMI-8226
[16] = system: UACC-62
[17] = system: NCI-H226

Compound | GI50 [1] | GI50 [2] | GI50 [3] | GI50 [4] | GI50 [5] | GI50 [6] | GI50 [7] | GI50 [8] | GI50 [9] | GI50 [10] | GI50 [11] | GI50 [12] | GI50 [13] | GI50 [14] [µM] | GI50 [15] | GI50 [16] | GI50 [17]
COC(=O)CCC(=O)NC1C2CC3CC(C2)CC1C3 (centres undefined) | > 100 µM (inactive) | > 100 µM (inactive) | > 100 µM (inactive) | > 100 µM (inactive) | > 100 µM (inactive) | > 100 µM (inactive) | > 100 µM (inactive) | > 100 µM (inactive) | > 100 µM (inactive) | > 100 µM (inactive) | > 100 µM (inactive) | > 100 µM (inactive) | > 100 µM (inactive) | > 100 | > 100 µM (inactive) | > 100 µM (inactive) | –
Clc1ccc(-c2nnc3c4nnc(-c5ccc(Cl)cc5Cl)n4c4ccccc4n23)c(Cl)c1 | > 100 µM (inactive) | 63.5 µM (inactive) | > 100 µM (inactive) | > 100 µM (inactive) | > 100 µM (inactive) | > 100 µM (inactive) | > 100 µM (inactive) | 82.4 µM (inactive) | > 100 µM (inactive) | > 100 µM (inactive) | > 100 µM (inactive) | > 100 µM (inactive) | > 100 µM (inactive) | > 100 | > 100 µM (inactive) | > 100 µM (inactive) | –
COC(=O)/C(=N\NC(N)=O)C(C#N)c1ccccc1 (centres undefined) | > 100 µM (inactive) | > 100 µM (inactive) | > 100 µM (inactive) | > 100 µM (inactive) | > 100 µM (inactive) | > 100 µM (inactive) | > 100 µM (inactive) | > 100 µM (inactive) | > 100 µM (inactive) | > 100 µM (inactive) | – | > 100 µM (inactive) | > 100 µM (inactive) | > 100 | > 100 µM (inactive) | > 100 µM (inactive) | > 100 µM (inactive)
Cc1c2ccccc2cc2ccc3oc([N+](=O)[O-])cc3c12 | 81.7 µM (inactive) | > 100 µM (inactive) | > 100 µM (inactive) | > 100 µM (inactive) | > 100 µM (inactive) | > 100 µM (inactive) | – | > 100 µM (inactive) | 5.47 µM (inactive) | > 100 µM (inactive) | 3.18 µM (inactive) | > 100 µM (inactive) | – | > 100 | > 100 µM (inactive) | > 100 µM (inactive) | –
N#CC(C(=O)C(=O)Nc1ccc(Cl)cc1)c1ccccc1 (centres undefined) | > 100 µM (inactive) | > 100 µM (inactive) | > 100 µM (inactive) | > 100 µM (inactive) | – | 93.1 µM (inactive) | – | > 100 µM (inactive) | > 100 µM (inactive) | > 100 µM (inactive) | > 100 µM (inactive) | > 100 µM (inactive) | > 100 µM (inactive) | > 100 | > 100 µM (inactive) | 22.6 µM (inactive) | > 100 µM (inactive)
COc1ccc(/C=C2\N=C(c3ccccc3)OC2=O)c(OCc2ccccc2)c1 | > 100 µM (inactive) | 28.4 µM (inactive) | > 100 µM (inactive) | 54.2 µM (inactive) | 22.9 µM (inactive) | 84.9 µM (inactive) | 24.6 µM (inactive) | 20.1 µM (inactive) | – | – | 19.8 µM (inactive) | 49.3 µM (inactive) | – | – | 15.8 µM (inactive) | 19.7 µM (inactive) | 53.2 µM (inactive)
O/N=C1\CCCCC1C(NO)c1ccccc1 (centres undefined) | > 100 µM (inactive) | > 100 µM (inactive) | > 100 µM (inactive) | 98.9 µM (inactive) | > 100 µM (inactive) | > 100 µM (inactive) | 81.5 µM (inactive) | > 100 µM (inactive) | > 100 µM (inactive) | > 100 µM (inactive) | – | > 100 µM (inactive) | > 100 µM (inactive) | > 100 | > 100 µM (inactive) | > 100 µM (inactive) | –
O=C(Cc1nc2ccccc2o1)C(=O)Nc1cccc(Cl)c1 | > 100 µM (inactive) | > 100 µM (inactive) | > 100 µM (inactive) | > 100 µM (inactive) | > 100 µM (inactive) | > 100 µM (inactive) | > 100 µM (inactive) | > 100 µM (inactive) | > 100 µM (inactive) | > 100 µM (inactive) | – | > 100 µM (inactive) | > 100 µM (inactive) | > 100 | – | > 100 µM (inactive) | > 100 µM (inactive)
CN(C)CCCn1cnc2ncccc2c1=O | > 100 µM (inactive) | > 100 µM (inactive) | > 100 µM (inactive) | > 100 µM (inactive) | > 100 µM (inactive) | 55.1 µM (inactive) | > 100 µM (inactive) | > 100 µM (inactive) | > 100 µM (inactive) | > 100 µM (inactive) | > 100 µM (inactive) | > 100 µM (inactive) | > 100 µM (inactive) | – | – | > 100 µM (inactive) | > 100 µM (inactive)
CC(Oc1ccc(OCC2CCCCC2)cc1)C(N)=O (centres undefined) | – | – | > 100 µM (inactive) | > 100 µM (inactive) | > 100 µM (inactive) | – | 87.9 µM (inactive) | > 100 µM (inactive) | > 100 µM (inactive) | > 100 µM (inactive) | > 100 µM (inactive) | > 100 µM (inactive) | > 100 µM (inactive) | > 100 | – | > 100 µM (inactive) | > 100 µM (inactive)
Cc1nc(=O)n2c(C)n[nH]c2c1C(=O)O | > 100 µM (inactive) | – | > 100 µM (inactive) | > 100 µM (inactive) | > 100 µM (inactive) | > 100 µM (inactive) | > 100 µM (inactive) | > 100 µM (inactive) | > 100 µM (inactive) | > 100 µM (inactive) | 10 µM (inactive) | > 100 µM (inactive) | > 100 µM (inactive) | > 100 | > 100 µM (inactive) | > 100 µM (inactive) | > 100 µM (inactive)
O=C(C/C(=N\NC(=O)C[n+]1ccccc1)C(=O)Nc1nc2ccc([N+](=O)[O-])cc2s1)CC(c1ccccc1)c1c(O)c2ccccc2oc1=O (centres undefined) | > 100 µM (inactive) | > 100 µM (inactive) | > 100 µM (inactive) | > 100 µM (inactive) | > 100 µM (inactive) | > 100 µM (inactive) | 99.5 µM (inactive) | > 100 µM (inactive) | > 100 µM (inactive) | > 100 µM (inactive) | > 100 µM (inactive) | > 100 µM (inactive) | > 100 µM (inactive) | – | > 100 µM (inactive) | > 100 µM (inactive) | –
CC1=C(C(=O)Nc2cc(F)c(F)cc2F)C(c2ccc([N+](=O)[O-])cc2)C(C(=O)Nc2cc(F)c(F)cc2F)=C(C)N1 | 13.9 µM (inactive) | 48.6 µM (inactive) | 48.2 µM (inactive) | 22.2 µM (inactive) | 33.8 µM (inactive) | 71.4 µM (inactive) | 15.7 µM (inactive) | 42.7 µM (inactive) | 18 µM (inactive) | 54.5 µM (inactive) | 23.6 µM (inactive) | 25.8 µM (inactive) | 31.8 µM (inactive) | – | 14 µM (inactive) | – | 37.8 µM (inactive)
Cc1ccc(C(=O)CC2(O)C(=O)Nc3c(C)cc(Cl)cc32)cc1 (centres undefined) | > 100 µM (inactive) | > 100 µM (inactive) | > 100 µM (inactive) | > 100 µM (inactive) | > 100 µM (inactive) | > 100 µM (inactive) | > 100 µM (inactive) | > 100 µM (inactive) | > 100 µM (inactive) | > 100 µM (inactive) | > 100 µM (inactive) | – | > 100 µM (inactive) | > 100 | 43.2 µM (inactive) | – | > 100 µM (inactive)
CCOC(=O)C(Cc1c(C=O)[nH]c2ccccc12)(NC(=O)c1ccccc1)C(=O)OCC | 18.5 µM (inactive) | 4.93 µM (inactive) | 14.2 µM (inactive) | 15 µM (inactive) | 19.1 µM (inactive) | 18.8 µM (inactive) | – | 16.7 µM (inactive) | 16.5 µM (inactive) | 23.9 µM (inactive) | 11.4 µM (inactive) | – | 13.7 µM (inactive) | 6.7 | > 100 µM (inactive) | – | 19.5 µM (inactive)
c1ccc(CSc2nc3ccccc3nc2-c2cccs2)cc1 | > 100 µM (inactive) | > 100 µM (inactive) | – | > 100 µM (inactive) | > 100 µM (inactive) | > 100 µM (inactive) | 41.3 µM (inactive) | > 100 µM (inactive) | > 100 µM (inactive) | > 100 µM (inactive) | > 100 µM (inactive) | > 100 µM (inactive) | > 100 µM (inactive) | > 100 | > 100 µM (inactive) | – | > 100 µM (inactive)
Cc1ccccc1NC(=O)c1cc(-c2ccc([N+](=O)[O-])cc2)nc(S)n1 | > 100 µM (inactive) | > 100 µM (inactive) | > 100 µM (inactive) | > 100 µM (inactive) | > 100 µM (inactive) | > 100 µM (inactive) | – | > 100 µM (inactive) | > 100 µM (inactive) | > 100 µM (inactive) | > 100 µM (inactive) | > 100 µM (inactive) | > 100 µM (inactive) | > 100 | – | > 100 µM (inactive) | > 100 µM (inactive)
O=C(/C=C/c1ccc(O)c(O)c1)OC1C[C@@](O)(C(=O)O)C[C@@H](O)[C@H]1OC(=O)/C=C/c1ccc(O)c(O)c1 (some centres undefined) | > 100 µM (inactive) | – | > 100 µM (inactive) | > 100 µM (inactive) | > 100 µM (inactive) | > 100 µM (inactive) | > 100 µM (inactive) | > 100 µM (inactive) | > 100 µM (inactive) | > 100 µM (inactive) | > 100 µM (inactive) | > 100 µM (inactive) | > 100 µM (inactive) | > 100 | > 100 µM (inactive) | > 100 µM (inactive) | > 100 µM (inactive)
